Eight compounds from paper PMC9151520 (Archives of Toxicology, 2022) can be followed below.

One may read the EC50 as the concentration that produces a half-maximal response.

Data set [1] relates to p53 signaling (p53RE-bla HCT-116 cells).
Data set [2] has the same test system. The source holds these as a separate data set.
The test system is the same in data set [3]. The data set is described as follows: cells. In kind it is cell-based.
Data set [4] concerns p53RE-bla HCT-116 cells.
Setting [5] is: Homo sapiens, HCT-116, read-out: p53 activation EC50, cherry pick confirmation.
Where [6] appears, read: Homo sapiens, HCT-116, read-out: p53 activation EC50, primary screening.
[7] abbreviates: Homo sapiens, HCT-116, read-out: p53 activation efficacy, cherry pick confirmation.
Setting [8] is: Homo sapiens, HCT-116, read-out: p53 activation efficacy, primary screening.
Setting [9] is: read-out: EC50, p53 activation, cherry pick confirmation.

Several values for one entry are separate records, joined by “and”; a condition that tells them apart may be missing. Equal entries are not always repeated. Where two headings read alike, the source gives them in different places.

As for `CCOC(=O)NC(=S)Nc1ccccc1NC(=S)NC(=O)OCC` [Thiophanate], in data set [1], the “EC50, p53 activation, cherry pick confirmation” value is “inactive”; the “EC50, p53 activation, primary screening” value was “inactive”; the “Efficacy, p53 activation, cherry pick confirmation” value is “inactive”; the “Efficacy, p53 activation, primary screening” value was “inactive”. For the same compound, in data set [2], the “EC50, p53 activation, cherry pick confirmation” value is “inactive”; the “EC50, p53 activation, primary screening” value was “inactive”; the “Efficacy, p53 activation, cherry pick confirmation” value is “inactive”; the “Efficacy, p53 activation, primary screening” value was “inactive”. Besides, in data set [3], the “EC50, p53 activation, cherry pick confirmation” value was “inactive” and the “Efficacy, p53 activation, cherry pick confirmation” value was “inactive”. The EC50 in data set [3] (Homo sapiens, HCT-116, read-out: EC50, p53 activation, primary screening) was found to be 41 µM. Besides, the Emax in data set [3] (Homo sapiens, HCT-116, read-out: Efficacy, p53 activation, primary screening) was found to be 70.2%. In addition, in data set [4], the “EC50, viability, cherry pick confirmation” value was “inactive”; the “EC50, viability, primary screening” value was “inactive”; the “Efficacy, viability, cherry pick confirmation” value was “inactive”; the “Efficacy, viability, primary screening” value was “inactive”.
Consider PharmaGSID_48505, for which, in data set [1], the “p53 activation EC50, cherry pick confirmation” value was “inactive”; the “p53 activation EC50, primary screening” value was “inactive”; the “p53 activation efficacy, cherry pick confirmation” value was “inactive”; the “p53 activation efficacy, primary screening” value is “inactive”. For the same compound, in data set [2], the “p53 activation EC50, cherry pick confirmation” value is “inactive”; the “p53 activation EC50, primary screening” value is “inactive”; the “p53 activation efficacy, cherry pick confirmation” value is “inactive”; the “p53 activation efficacy, primary screening” value was “inactive”. Further, in data set [3], the “p53 activation efficacy, cherry pick confirmation” value amounted to 67.8753 and the “p53 activation efficacy, primary screening” value turned out to be 66.729. In addition, in data set [3] (read-out: p53 activation EC50, cherry pick confirmation), the EC50 came out at 2.82 µM. The EC50 in data set [3] (read-out: p53 activation EC50, primary screening) was determined as 0.396 µM. In data set [4], the “Viability EC50, cherry pick confirmation” value is “inactive”; the “Viability EC50, primary screening” value was “inactive”; the “Viability efficacy, cherry pick confirmation” value was “inactive”; the “Viability efficacy, primary screening” value is “inactive”.
On to `CNC(=O)Oc1ccccc1OC(C)C` [Propoxur], for which the “p53 activation EC50” value in data set [1] is “inactive”. Further, the “p53 activation EC50” value in data set [2] was “inactive”. Moreover, in data set [3], the “p53 activation EC50” value is “inactive” and the p53 activation efficacy entry was “inactive”. Moreover, in data set [4], the “Viability EC50” value was “inactive” and the Viability efficacy result is “inactive”.
Take `Oc1ccc(OCc2ccccc2)cc1` [4-(Benzyloxyl)phenol]: in data set [1], the “p53 activation EC50, cherry pick confirmation” value is “inactive”; the “p53 activation EC50, primary screening” value was “inactive”; the “p53 activation efficacy, cherry pick confirmation” value was “inactive”; the “p53 activation efficacy, primary screening” value was “inactive”. For the same compound, in data set [2], the “p53 activation EC50, cherry pick confirmation” value is “inactive”; the “p53 activation EC50, primary screening” value is “inactive”; the “p53 activation efficacy, cherry pick confirmation” value is “inactive”; the “p53 activation efficacy, primary screening” value is “inactive”. The EC50 in data set [3] (setting [5]) turned out to be 14 µM. Further, the EC50 in data set [3] (setting [6]) was 18.6 µM. Also, in data set [3] (setting [7]), the Emax worked out at 39%. The Emax in data set [3] (setting [8]) was 33.5%. Besides, in data set [4], the “Viability EC50, cherry pick confirmation” value was “inactive”; the “Viability EC50, primary screening” value was “inactive”; the “Viability efficacy, cherry pick confirmation” value is “inactive”; the “Viability efficacy, primary screening” value is “inactive”.
As for `C=C(CC)C(=O)c1ccc(OCC(=O)O)c(Cl)c1Cl` [Ethacrynic acid], in data set [1], the “p53 activation EC50, cherry pick confirmation” value was “inactive”; the “p53 activation EC50, primary screening” value is “inactive”; the “p53 activation efficacy, cherry pick confirmation” value is “inactive”; the “p53 activation efficacy, primary screening” value was “inactive”. In data set [2], the “p53 activation EC50, cherry pick confirmation” value was “inactive”; the “p53 activation EC50, primary screening” value is “inactive”; the “p53 activation efficacy, cherry pick confirmation” value was “inactive”; the “p53 activation efficacy, primary screening” value is “inactive”. In data set [3], the “p53 activation EC50, cherry pick confirmation” value was “inactive” and the “p53 activation efficacy, cherry pick confirmation” value is “inactive”. Besides, the EC50 in data set [3] (setting [6]) worked out at 8.57 µM. Besides, the Emax in data set [3] (setting [8]) was determined as 27.2%. Also, in data set [4], the “Viability EC50, cherry pick confirmation” value was “inactive”; the “Viability EC50, primary screening” value is “inactive”; the “Viability efficacy, cherry pick confirmation” value was “inactive”; the “Viability efficacy, primary screening” value is “inactive”.
In data set [1], `CCOP(=S)(OCC)Oc1cc(Cl)c(Br)cc1Cl` [Bromophos-ethyl] yielded an EC50 of 12.5 µM. Besides, in data set [1] (setting [9]), the concentration giving a half-maximal response (EC50) was 6.31 µM. In addition, the “EC50, p53 activation, cherry pick confirmation” value in data set [2] is “inactive”. In data set [3], the “EC50, p53 activation, primary screening” value was “inactive”; the “Efficacy, p53 activation, cherry pick confirmation” value was determined as 38.522; the “Efficacy, p53 activation, primary screening” value is “inactive”. The EC50 in data set [3] (setting [9]) was 33.2 µM. Further, in data set [4], the “EC50, viability, cherry pick confirmation” value is “inactive”; the “EC50, viability, primary screening” value is “inactive”; the “Efficacy, viability, cherry pick confirmation” value is “inactive”; the “Efficacy, viability, primary screening” value was “inactive”.
For the compound `CCN(CC)c1ccc2c(C)cc(=O)oc2c1` [7-Diethylamino-4-methylcoumarin], in data set [1], the “p53 activation EC50, RLM” value was “inactive” and the “p53 activation Efficacy, RLM” value is “inactive”. Also, the “p53 activation EC50, HLM” value in data set [2] was “inactive”. For the same compound, the EC50 in data set [2] (read-out: p53 activation EC50, HLM) was determined as 41.1 µM. In addition, the EC50 in data set [3] (read-out: p53 activation EC50, No MS) was 13 µM and 25.2 µM. In data set [4], the “Viability EC50, HLM” value was “inactive”; the “Viability EC50, No MS” value was “inactive”; the “Viability EC50, RLM” value was “inactive”; the “Viability Efficacy, HLM” value is “inactive”. In addition, in data set [4], the “Viability Efficacy, No MS” value is “inactive” and the “Viability Efficacy, RLM” value is “inactive”.
Regarding `NC(=O)c1ncn([C@@H]2O[C@H](CO)[C@@H](O)[C@H]2O)n1` [Ribavirin], in data set [1], the “p53 activation EC50, cherry pick confirmation” value was “inactive”; the “p53 activation EC50, primary screening” value was “inactive”; the “p53 activation efficacy, cherry pick confirmation” value is “inactive”; the “p53 activation efficacy, primary screening” value was “inactive”. Also, in data set [2], the “p53 activation EC50, cherry pick confirmation” value was “inactive”; the “p53 activation EC50, primary screening” value is “inactive”; the “p53 activation efficacy, cherry pick confirmation” value is “inactive”; the “p53 activation efficacy, primary screening” value is “inactive”. Also, the EC50 in data set [3] (setting [5]) stood at 10.8 µM. In data set [3] (setting [6]), the EC50 stood at 24.3 µM. For the same compound, in data set [3] (setting [7]), the Emax is 43.7%. Besides, the Emax in data set [3] (setting [8]) worked out at 31.4%. Also, in data set [4], the “Viability EC50, cherry pick confirmation” value is “inactive”; the “Viability EC50, primary screening” value is “inactive”; the “Viability efficacy, cherry pick confirmation” value is “inactive”; the “Viability efficacy, primary screening” value is “inactive”.
